Laboratory results published in ChEMBL document CHEMBL1201861, “Genomics of Drug Sensitity in Cancer screening data, Wellcome Trust Sanger Institute”.
Where a name gives a salt, the structure may show the parent alone.

Tests used:
Test in all cases: cells
Assay type in all cases: functional, cell-based, Homo sapiens
BFTC-905 = details: Homo sapiens, BFTC-905
Description: SANGER: Inhibition of human BFTC-905 cell growth in a cell viability assay.

SK-MES-1 = details: Homo sapiens, SK-MES-1;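 note: growth inhibition of human SK-MES-1 cells, read out with a cell viability assay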
Description: SANGER: Inhibition of human SK-MES-1 cell growth in a cell viability assay.

BT-20 = details: Homo sapiens, BT-20;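 note: cell viability assay measuring suppression of growth in human BT-20 cells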
Description: SANGER: Inhibition of human BT-20 cell growth in a cell viability assay.

MDA-MB-231 = details: Homo sapiens, MDA-MB-231
Description: SANGER: Inhibition of human MDA-MB-231 cell growth in a cell viability assay.

COLO-741 = details: Homo sapiens, COLO-741
Description: SANGER: Inhibition of human COLO-741 cell growth in a cell viability assay.

TE-15 = details: Homo sapiens, TE-15;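 note: cell viability readout of growth inhibition in TE-15 cells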
Description: SANGER: Inhibition of human TE-15 cell growth in a cell viability assay.

NCI-H2227 = details: Homo sapiens, NCI-H2227;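 note: growth inhibition of the human cell line, read out with a cell viability assay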
Description: SANGER: Inhibition of human NCI-H2227 cell growth in a cell viability assay.

OE33 = details: Homo sapiens, OE33;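 note: growth inhibition of human OE33 cells, measured by a cell viability assay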
Description: SANGER: Inhibition of human OE33 cell growth in a cell viability assay.

A2058 = details: Homo sapiens, A2058;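 note: reduction of A2058 cell growth, read out with a viability assay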
Description: SANGER: Inhibition of human A2058 cell growth in a cell viability assay.

NCI-H1755 = details: Homo sapiens, NCI-H1755;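 note: cell viability readout used to measure growth inhibition of NCI-H1755 cells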
Description: SANGER: Inhibition of human NCI-H1755 cell growth in a cell viability assay.

WSU-NHL = details: Homo sapiens, WSU-NHL;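 note: growth inhibition of human WSU-NHL cells, read out with a cell viability assay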
Description: SANGER: Inhibition of human WSU-NHL cell growth in a cell viability assay.

NCI-H1993 = details: Homo sapiens, NCI-H1993;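 note: growth inhibition of the cancer cell line, assessed with a cell viability assay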
Description: SANGER: Inhibition of human NCI-H1993 cell growth in a cell viability assay.

LC-1F = details: Homo sapiens, LC-1F;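 note: growth inhibition of human LC-1F cells, read out with a cell viability assay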
Description: SANGER: Inhibition of human LC-1F cell growth in a cell viability assay.

IST-SL2 = details: Homo sapiens, IST-SL2;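 note: growth inhibition of human IST-SL2 cells, read out by a cell viability assay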
Description: SANGER: Inhibition of human IST-SL2 cell growth in a cell viability assay.

CaR-1 = details: Homo sapiens, CaR-1;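 note: growth inhibition of human CaR-1 cancer cells, read out with a cell viability assay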
Description: SANGER: Inhibition of human CaR-1 cell growth in a cell viability assay.

BL-41 = details: Homo sapiens, BL-41;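 note: growth inhibition of human BL-41 cells, read out with a cell viability assay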
Description: SANGER: Inhibition of human BL-41 cell growth in a cell viability assay.

NCI-H1623 = details: Homo sapiens, NCI-H1623;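 note: cell viability assay used as the read-out for growth inhibition of NCI-H1623 cells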
Description: SANGER: Inhibition of human NCI-H1623 cell growth in a cell viability assay.

KU-19-19 = details: Homo sapiens, KU-19-19
Description: SANGER: Inhibition of human KU-19-19 cell growth in a cell viability assay.

CA46 = details: Homo sapiens, CA46;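 note: growth inhibition of human CA46 cells, read out by a cell viability assay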
Description: SANGER: Inhibition of human CA46 cell growth in a cell viability assay.

HOP-92 = details: Homo sapiens, HOP-92;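 note: cell viability readout, with IC50 reflecting inhibition of HOP-92 cell growth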
Description: SANGER: Inhibition of human HOP-92 cell growth in a cell viability assay.

OAW-42 = details: Homo sapiens, OAW-42;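 note: growth inhibition of OAW-42 cells, read out with a cell viability assay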
Description: SANGER: Inhibition of human OAW-42 cell growth in a cell viability assay.

S-117 = details: Homo sapiens, S-117
Description: SANGER: Inhibition of human S-117 cell growth in a cell viability assay.

8305C = details: Homo sapiens, 8305C
Description: SANGER: Inhibition of human 8305C cell growth in a cell viability assay.

HCC1599 = details: Homo sapiens, HCC1599;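 note: growth inhibition of HCC1599 cells, read out in a cell viability assay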
Description: SANGER: Inhibition of human HCC1599 cell growth in a cell viability assay.

EGI-1 = details: Homo sapiens, EGI-1;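 note: cell viability readout used to gauge growth inhibition of EGI-1 cells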
Description: SANGER: Inhibition of human EGI-1 cell growth in a cell viability assay.

TYK-nu = details: Homo sapiens, TYK-nu;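 note: growth inhibition of human TYK-nu cells, read out by a cell viability assay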
Description: SANGER: Inhibition of human TYK-nu cell growth in a cell viability assay.

Huh-7 = details: Homo sapiens, Huh-7;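 note: HuH-7 cell growth inhibition, read out with a cell viability assay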
Description: SANGER: Inhibition of human HuH-7 cell growth in a cell viability assay.

RPMI-6666 = details: Homo sapiens, RPMI-6666
Description: SANGER: Inhibition of human RPMI-6666 cell growth in a cell viability assay.

SAOS-2 = details: Homo sapiens, SAOS-2;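 note: growth inhibition of human Saos-2 cells determined by a cell viability assay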
Description: SANGER: Inhibition of human Saos-2 cell growth in a cell viability assay.

NCI-H441 = details: Homo sapiens, NCI-H441;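 note: growth inhibition of NCI-H441 cells, read out with a cell viability assay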
Description: SANGER: Inhibition of human NCI-H441 cell growth in a cell viability assay.

NCI-H2196 = details: Homo sapiens, NCI-H2196;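 note: cell viability assay used as the readout of growth inhibition in NCI-H2196 cells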
Description: SANGER: Inhibition of human NCI-H2196 cell growth in a cell viability assay.

DOK = details: Homo sapiens, DOK;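 note: cell viability assay read-out, values reflect inhibition of cell growth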
Description: SANGER: Inhibition of human DOK cell growth in a cell viability assay.

NCI-H524 = details: Homo sapiens, NCI-H524;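 note: growth inhibition of human NCI-H524 cells, read out through a cell viability assay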
Description: SANGER: Inhibition of human NCI-H524 cell growth in a cell viability assay.

BPH-1 = details: Homo sapiens, BPH-1;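 note: cell viability assay measuring growth inhibition of human BPH-1 cells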
Description: SANGER: Inhibition of human BPH-1 cell growth in a cell viability assay.

MDA-MB-415 = details: Homo sapiens, MDA-MB-415
LCLC-97TM1 = details: Homo sapiens, LCLC-97TM1;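 note: cell viability assay measuring growth inhibition of human LCLC-97TM1 cells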
Description: SANGER: Inhibition of human LCLC-97TM1 cell growth in a cell viability assay.

MFE-280 = details: Homo sapiens, MFE-280;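 note: growth inhibition of MFE-280 cells, determined with a cell viability readout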
Description: SANGER: Inhibition of human MFE-280 cell growth in a cell viability assay.

KYSE-270 = details: Homo sapiens, KYSE-270;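 note: cell growth inhibition measured with a viability assay in the human KYSE-270 line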
Description: SANGER: Inhibition of human KYSE-270 cell growth in a cell viability assay.

KP-N-YN = details: Homo sapiens, KP-N-YN;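 note: growth inhibition of KP-N-YN cells, read out with a cell viability assay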
Description: SANGER: Inhibition of human KP-N-YN cell growth in a cell viability assay.

NCI-H1573 = details: Homo sapiens, NCI-H1573;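 note: growth inhibition of NCI-H1573 cells, read out with a cell viability assay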
Description: SANGER: Inhibition of human NCI-H1573 cell growth in a cell viability assay.

NALM-6 = details: Homo sapiens, NALM-6;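 note: growth inhibition of NALM-6 cells, read out with a cell viability assay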
Description: SANGER: Inhibition of human NALM-6 cell growth in a cell viability assay.

COLO-679 = details: Homo sapiens, COLO-679
Description: SANGER: Inhibition of human COLO-679 cell growth in a cell viability assay.

NCI-H2030 = details: Homo sapiens, NCI-H2030;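 note: growth inhibition of human NCI-H2030 cells, read out by a cell viability assay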
Description: SANGER: Inhibition of human NCI-H2030 cell growth in a cell viability assay.

SW13 = details: Homo sapiens, SW13;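 note: IC50 is inhibition of SW13 cell growth, read out with a cell viability assay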
Description: SANGER: Inhibition of human SW13 cell growth in a cell viability assay.

DoTc2-4510 = details: Homo sapiens, DoTc2-4510
FTC-133 = details: Homo sapiens, FTC-133

SMILES: CCC/C=C/C=C/C(=O)O[C@H]1/C(=C/C(=O)OC)C[C@H]2C[C@H]([C@@H](C)O)OC(=O)C[C@H](O)C[C@@H]3C[C@H](OC(C)=O)C(C)(C)[C@](O)(C[C@@H]4C/C(=C/C(=O)OC)C[C@H](/C=C/C(C)(C)[C@]1(O)O2)O4)O3 [BRYOSTATIN 1]
- IC50 (BFTC-905): > 8 nM
- IC50 (SK-MES-1): > 8 nM
- IC50 (BT-20): > 8 nM
- IC50 (MDA-MB-231): > 8 nM
- IC50 (COLO-741): > 8 nM
- IC50 (TE-15): > 8 nM
- IC50 (NCI-H2227): > 8 nM
- IC50 (OE33): > 8 nM
- IC50 (A2058): > 8 nM
- IC50 (NCI-H1755): > 8 nM
- IC50 (WSU-NHL): > 8 nM
- IC50 (NCI-H1993): > 8 nM
- IC50 (LC-1F): > 8 nM
- IC50 (IST-SL2): > 8 nM
- IC50 (CaR-1): > 8 nM
- IC50 (BL-41): > 8 nM
- IC50 (NCI-H1623): > 8 nM
- IC50 (KU-19-19): > 8 nM
- IC50 (CA46): > 8 nM
- IC50 (HOP-92): > 8 nM
- IC50 (OAW-42): > 8 nM
- IC50 (S-117): 5.92 nM
- IC50 (8305C): > 8 nM
- IC50 (HCC1599): > 8 nM
- IC50 (EGI-1): > 8 nM
- IC50 (TYK-nu): > 8 nM
- IC50 (Huh-7): > 8 nM
- IC50 (RPMI-6666): > 8 nM
- IC50 (SAOS-2): > 8 nM
- IC50 (NCI-H441): > 8 nM
- IC50 (NCI-H2196): > 8 nM
- IC50 (DOK): > 8 nM
- IC50 (NCI-H524): > 8 nM
- IC50 (BPH-1): 6.03 nM
- IC50 (MDA-MB-415): > 8 nM
- IC50 (LCLC-97TM1): > 8 nM
- IC50 (MFE-280): > 8 nM
- IC50 (KYSE-270): > 8 nM
- IC50 (KP-N-YN): > 8 nM
- IC50 (NCI-H1573): 2.36 nM
- IC50 (NALM-6): > 8 nM
- IC50 (COLO-679): > 8 nM
- IC50 (NCI-H2030): > 8 nM
- IC50 (SW13): > 8 nM
- IC50 (DoTc2-4510): > 8 nM
- IC50 (FTC-133): > 8 nM

SMILES: COC1=CC(c2cc3ccccc3[nH]2)=N/C1=C\c1[nH]c(C)cc1C [OBATOCLAX MESYLATE]
- IC50 (BFTC-905): 79.1 nM
- IC50 (SK-MES-1): 129 nM
- IC50 (BT-20): 4490 nM
- IC50 (MDA-MB-231): 801 nM
- IC50 (COLO-741): 316 nM
- IC50 (TE-15): 203 nM
- IC50 (NCI-H2227): > 16000 nM
- IC50 (OE33): 251 nM
- IC50 (A2058): 107 nM
- IC50 (NCI-H1755): 5230 nM
- IC50 (WSU-NHL): 75.5 nM
- IC50 (NCI-H1993): > 16000 nM
- IC50 (LC-1F): 3720 nM
- IC50 (IST-SL2): 94.7 nM
- IC50 (CaR-1): 3980 nM
- IC50 (BL-41): 62.2 nM
- IC50 (NCI-H1623): 3090 nM
- IC50 (KU-19-19): 646 nM
- IC50 (CA46): 65.4 nM
- IC50 (HOP-92): 368 nM
- IC50 (OAW-42): 215 nM
- IC50 (S-117): 29.1 nM
- IC50 (8305C): 180 nM
- IC50 (HCC1599): 500 nM
- IC50 (EGI-1): 1580 nM
- IC50 (TYK-nu): 179 nM
- IC50 (Huh-7): 379 nM
- IC50 (RPMI-6666): 89.7 nM
- IC50 (SAOS-2): 246 nM
- IC50 (NCI-H441): 191 nM
- IC50 (NCI-H2196): 3350 nM
- IC50 (DOK): 848 nM
- IC50 (NCI-H524): 9590 nM
- IC50 (BPH-1): 563 nM
- IC50 (MDA-MB-415): 2180 nM
- IC50 (LCLC-97TM1): 55.9 nM
- IC50 (MFE-280): 963 nM
- IC50 (KYSE-270): 29.8 nM
- IC50 (KP-N-YN): > 16000 nM
- IC50 (NCI-H1573): 3200 nM
- IC50 (NALM-6): < 62.5 nM
- IC50 (COLO-679): < 62.5 nM
- IC50 (NCI-H2030): 227 nM
- IC50 (SW13): 406 nM
- IC50 (DoTc2-4510): 33.9 nM
- IC50 (FTC-133): 3650 nM
